Experimental data taken from patent US20220395553A1, “CXCR4 ANTAGONIST PEPTIDES” (COHBAR, INC., priority 2019, published 2022).
pIC50: −log10 of the molar value. Square brackets hold non-standard residues; d marks the D form. Peptide text beside a SMILES is read from it.

Legend:
[1] = biological target: T1, human CXCR4 (Homo sapiens, UniProt P61073); assay: Inhibition of β-Arrestin recruitment, single concentration (Example 18); assay type: cell-based; parameters: host or cells: C2C12 (mouse myoblast) CXCR4 β-Arrestin PathHunter cell line; conditions: peptide 1 μM, […] CXCL12 (EC80), C2C12 CXCR4 β-Arrestin cells
Method: Peptides were initially prepared as 1 mM stock in DMSO and tested at a final concentration of 1 μM (0.1% DMSO). C2C12 CXCR4 β-Arrestin cells were seeded onto 384-well plates in standard medium. After overnight culture, the medium was replaced with buffer containing 1 μM peptide and pre-incubated for 30 min at 37° C. […] At the end of the 90 min incubation period, β-Arrestin recruitment in response to various treatments was quantified using a chemiluminescent complementation reporter assay to measure association of tagged human […] (ProLink tag) and tagged β-Arrestin (Enzyme Acceptor tag).

[2] = biological target: T1, human CXCR4; assay: CXCR4/CXCL12 binding, HTRF format, single concentration (Example 23); parameters: host or cells: HEK293 (Tag-lite CXCR4 cells, frozen aliquots, transient expression); conditions: 15 nM CXCR4R fluorescent probe, 3 hours, HEK293 Tag-lite CXCR4 cells
Summary of the method: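 Tag-lite CXCR4 cells were exposed to peptide at 400 nM final with 15 nM (EC80) fluorescent CXCR4 probe for 3 h at room temperature. HTRF was read, and the 665/620 nm ratio ×10,000 measured probe bound to terbium-labelled receptor.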

[3] = biological target: T1, human CXCR4; assay: IC50 for inhibition of β-Arrestin recruitment (Example 19); assay type: cell-based; parameters: host or cells: C2C12 (mouse myoblast) CXCR4 β-Arrestin PathHunter cell line
Text: C2C12 CXCR4 β-Arrestin cells were seed onto 384-well plates in standard medium.

T1 sequence (P61073 whole entry): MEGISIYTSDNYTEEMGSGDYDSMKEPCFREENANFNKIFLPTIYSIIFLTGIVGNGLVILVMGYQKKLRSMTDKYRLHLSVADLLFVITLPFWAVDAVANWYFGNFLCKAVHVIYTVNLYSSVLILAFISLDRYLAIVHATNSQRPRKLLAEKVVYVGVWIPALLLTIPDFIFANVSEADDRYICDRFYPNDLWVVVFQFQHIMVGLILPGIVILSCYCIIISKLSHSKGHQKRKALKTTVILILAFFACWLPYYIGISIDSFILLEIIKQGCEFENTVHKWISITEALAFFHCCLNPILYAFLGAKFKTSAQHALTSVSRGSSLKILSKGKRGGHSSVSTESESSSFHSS

## CC(C)C[C@H](NC(=O)[C@H](CO)NC(=O)[C@H](CO)NC(=O)[C@H](CCCNC(=N)N)NC(=O)[C@@H](NC(=O)[C@H](CO)NC(=O)[C@H](Cc1c[nH]cn1)NC(=O)[C@H](Cc1c[nH]cn1)NC(=O)[C@H](Cc1ccc(O)cc1)NC(=O)[C@H](CCCNC(=N)N)NC(=O)[C@H](CCCNC(=N)N)NC(=O)[C@@H](N)CC(C)C)C(C)C)C(=O)N[C@@H](CCCNC(=N)N)C(=O)N1CCC[C@H]1C(=O)N[C@@H](Cc1ccc(O)cc1)C(=O)N[C@H](C(=O)N[C@@H](CCCCN)C(=O)O)[C@@H](C)O [compound 3] (H-LRRYHHSVRSSLRPYTK-OH; N-terminus and C-terminus assumed)
[1]
  Percent Inhibition of CXCL12 Mediated CXCR4 Activity: 113.8%

## CC(C)C[C@H](NC(=O)[C@H](CO)NC(=O)[C@H](CO)NC(=O)[C@H](CCCNC(=N)N)NC(=O)[C@@H](NC(=O)[C@H](CO)NC(=O)[C@H](Cc1c[nH]cn1)NC(=O)[C@H](Cc1c[nH]cn1)NC(=O)[C@H](Cc1ccc(O)cc1)NC(=O)[C@H](CCCNC(=N)N)NC(=O)[C@H](CCC(=O)O)NC(=O)[C@@H](N)CC(C)C)C(C)C)C(=O)N[C@@H](CCCNC(=N)N)C(=O)N1CCC[C@H]1C(=O)N[C@@H](Cc1ccc(O)cc1)C(=O)N[C@H](C(=O)N[C@@H](CCCCN)C(=O)O)[C@@H](C)O [compound 4] (H-LERYHHSVRSSLRPYTK-OH; N-terminus and C-terminus assumed)
[2]
  Percent Inhibition of CXCR4/CXCL12 Binding (400 nM peptide): 88%

## CC(C)C[C@H](NC(=O)[C@H](CO)NC(=O)[C@H](CO)NC(=O)[C@H](CCCNC(=N)N)NC(=O)[C@@H](C)NC(=O)[C@H](CO)NC(=O)[C@H](Cc1c[nH]cn1)NC(=O)[C@H](Cc1c[nH]cn1)NC(=O)[C@H](Cc1ccc(O)cc1)NC(=O)[C@H](CCCNC(=N)N)NC(=O)[C@H](CCC(=O)O)NC(=O)[C@@H](N)CC(C)C)C(=O)N[C@@H](CCCNC(=N)N)C(=O)N1CCC[C@H]1C(=O)N[C@@H](Cc1ccc(O)cc1)C(=O)N[C@H](C(=O)O)[C@@H](C)O [compound 5] (H-LERYHHS[dA]RSSLRPYT-OH; N-terminus and C-terminus assumed)
[3]
  pIC50: 6.92
